The source of these data is US6458781B1, “Substituted diarylalkyl amides as calcium channel antagonists” (priority 1998, dated 2002).

Data set [1] deals with T1, L-type calcium channels in A10 cells (Rattus norvegicus, UniProt P22002).
T1 construct: which endogenously expresses L-type calcium channels; host or cells: A10 rat embryonic thoracic aorta smooth muscle cells
The experiment in a line: L-type Ca2+ channel blocking potency in A10 cells (FLIPR). The class given is cell-based. The note with it: read-out: FLPA10 IC50. The method in brief: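 Rat A10 aortic smooth-muscle cells endogenously expressing L-type channels were loaded with Oregon Green BAPTA-1 and preincubated with compound for 5 min at 35 °C. Cells were then depolarized with 140 mM KCl buffer. Summed fluorescence above basal over 120 s gave % inhibition versus buffer-treated stimulated wells, with zero influx defined by 1.0×10^−6 M nitrendipine.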

Data set [2] concerns electroshock-induced tonic extensor seizures in CF-1 mice. The experiment in a line: Maximal electroshock testing. The data set is classed as in vivo. As to conditions: protected/tested. On the procedure: Maximal Electroshock Testing
In this test, four representative compounds were tested for their anticonvulsant effects using the procedure described below.
Male CF-1 mice, 20 to 28 g, from Charles River Laboratories, Portage, Mich. were used in all experiments. Groups of 10 mice each were given various intravenous doses of test compound in aqueous solution with 10% Emulphan® Surfactant in a volume of 10 mL/kg of body weight. Electroshock was delivered by corneal electrodes with 60 Hz alternating current (50 mA root-mean-squared for 0.2 seconds) using a constant-current stimulator (Wahlquist Instruments, Salt Lake City, Utah). Untreated or saline-treated mice reliably had tonic extensor seizures with rearward extension of hindlimbs more than 3 seconds. These methods are similar to those published by Krall R. L.; Penry J. K.; White B. G.; and Kupferberg H. K. Antiepileptic Drug Development II. Anticonvulsant Drug Screening, Epilepsia, 1978; 19:409-428.
(In general: Protection in the maximal electroshock model is a classic sign of anticonvulsant action.)

Where [3] appears, read: 10 mg/Kg iv, 15 min posttreatment.
Setting [4] is: 30 mg/Kg iv, 15 min posttreatment.

Counter-ions that a name gives are not always drawn.

T1 sequence (P22002 whole entry): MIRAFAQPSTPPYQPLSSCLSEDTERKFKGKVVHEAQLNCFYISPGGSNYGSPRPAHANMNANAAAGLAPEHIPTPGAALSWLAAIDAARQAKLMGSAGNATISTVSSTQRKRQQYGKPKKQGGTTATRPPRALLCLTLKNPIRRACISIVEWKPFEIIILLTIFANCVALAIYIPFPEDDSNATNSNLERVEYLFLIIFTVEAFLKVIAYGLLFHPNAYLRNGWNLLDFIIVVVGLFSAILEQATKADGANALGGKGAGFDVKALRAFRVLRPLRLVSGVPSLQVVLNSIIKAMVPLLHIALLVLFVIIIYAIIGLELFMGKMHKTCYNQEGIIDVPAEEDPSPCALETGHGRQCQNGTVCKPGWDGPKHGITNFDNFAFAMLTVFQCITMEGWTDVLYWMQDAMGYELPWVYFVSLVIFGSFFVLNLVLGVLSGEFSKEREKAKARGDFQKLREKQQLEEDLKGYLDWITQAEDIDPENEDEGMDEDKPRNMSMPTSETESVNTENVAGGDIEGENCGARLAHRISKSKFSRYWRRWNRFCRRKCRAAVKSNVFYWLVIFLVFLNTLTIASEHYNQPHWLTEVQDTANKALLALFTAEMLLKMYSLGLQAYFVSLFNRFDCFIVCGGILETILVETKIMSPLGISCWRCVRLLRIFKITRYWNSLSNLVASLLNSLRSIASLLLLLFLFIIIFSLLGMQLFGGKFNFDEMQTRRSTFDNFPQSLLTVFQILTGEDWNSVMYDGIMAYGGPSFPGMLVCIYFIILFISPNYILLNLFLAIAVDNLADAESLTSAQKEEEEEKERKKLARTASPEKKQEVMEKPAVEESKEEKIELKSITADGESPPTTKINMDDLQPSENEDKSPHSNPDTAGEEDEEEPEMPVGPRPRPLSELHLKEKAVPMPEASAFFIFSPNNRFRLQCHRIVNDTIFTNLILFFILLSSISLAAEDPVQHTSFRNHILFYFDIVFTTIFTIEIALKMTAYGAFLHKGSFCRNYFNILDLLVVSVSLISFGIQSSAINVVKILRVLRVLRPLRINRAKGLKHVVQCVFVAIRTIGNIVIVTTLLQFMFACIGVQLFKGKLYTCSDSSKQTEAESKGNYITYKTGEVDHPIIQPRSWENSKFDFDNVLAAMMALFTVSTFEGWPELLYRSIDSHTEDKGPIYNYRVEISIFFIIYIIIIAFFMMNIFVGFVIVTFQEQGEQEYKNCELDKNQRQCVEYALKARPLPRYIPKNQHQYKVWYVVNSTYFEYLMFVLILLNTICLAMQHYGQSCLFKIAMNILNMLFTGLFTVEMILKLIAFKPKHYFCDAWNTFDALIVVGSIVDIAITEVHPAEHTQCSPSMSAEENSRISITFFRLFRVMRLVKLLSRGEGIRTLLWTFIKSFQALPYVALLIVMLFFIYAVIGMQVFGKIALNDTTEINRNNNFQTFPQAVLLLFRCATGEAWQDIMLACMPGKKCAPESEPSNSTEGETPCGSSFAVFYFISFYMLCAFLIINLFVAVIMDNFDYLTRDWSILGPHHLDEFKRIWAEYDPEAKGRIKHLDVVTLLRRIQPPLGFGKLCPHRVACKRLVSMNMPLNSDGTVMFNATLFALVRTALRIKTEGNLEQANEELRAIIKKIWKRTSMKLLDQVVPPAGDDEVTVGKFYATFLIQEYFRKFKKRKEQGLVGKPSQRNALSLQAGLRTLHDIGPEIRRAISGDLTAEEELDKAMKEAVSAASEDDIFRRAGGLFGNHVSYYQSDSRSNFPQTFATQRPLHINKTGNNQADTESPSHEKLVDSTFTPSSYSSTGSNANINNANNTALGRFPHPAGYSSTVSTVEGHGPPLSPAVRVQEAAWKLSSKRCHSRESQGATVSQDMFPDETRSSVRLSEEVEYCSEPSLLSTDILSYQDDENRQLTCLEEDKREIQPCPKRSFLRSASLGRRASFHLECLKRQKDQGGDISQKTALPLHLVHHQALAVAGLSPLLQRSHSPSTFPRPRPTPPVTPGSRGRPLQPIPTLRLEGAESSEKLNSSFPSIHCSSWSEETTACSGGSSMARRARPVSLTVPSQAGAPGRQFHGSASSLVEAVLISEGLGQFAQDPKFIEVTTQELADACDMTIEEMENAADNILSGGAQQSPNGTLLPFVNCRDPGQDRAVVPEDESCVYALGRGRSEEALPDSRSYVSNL
T1 sequence (P54290 25-944 partner limits assumed): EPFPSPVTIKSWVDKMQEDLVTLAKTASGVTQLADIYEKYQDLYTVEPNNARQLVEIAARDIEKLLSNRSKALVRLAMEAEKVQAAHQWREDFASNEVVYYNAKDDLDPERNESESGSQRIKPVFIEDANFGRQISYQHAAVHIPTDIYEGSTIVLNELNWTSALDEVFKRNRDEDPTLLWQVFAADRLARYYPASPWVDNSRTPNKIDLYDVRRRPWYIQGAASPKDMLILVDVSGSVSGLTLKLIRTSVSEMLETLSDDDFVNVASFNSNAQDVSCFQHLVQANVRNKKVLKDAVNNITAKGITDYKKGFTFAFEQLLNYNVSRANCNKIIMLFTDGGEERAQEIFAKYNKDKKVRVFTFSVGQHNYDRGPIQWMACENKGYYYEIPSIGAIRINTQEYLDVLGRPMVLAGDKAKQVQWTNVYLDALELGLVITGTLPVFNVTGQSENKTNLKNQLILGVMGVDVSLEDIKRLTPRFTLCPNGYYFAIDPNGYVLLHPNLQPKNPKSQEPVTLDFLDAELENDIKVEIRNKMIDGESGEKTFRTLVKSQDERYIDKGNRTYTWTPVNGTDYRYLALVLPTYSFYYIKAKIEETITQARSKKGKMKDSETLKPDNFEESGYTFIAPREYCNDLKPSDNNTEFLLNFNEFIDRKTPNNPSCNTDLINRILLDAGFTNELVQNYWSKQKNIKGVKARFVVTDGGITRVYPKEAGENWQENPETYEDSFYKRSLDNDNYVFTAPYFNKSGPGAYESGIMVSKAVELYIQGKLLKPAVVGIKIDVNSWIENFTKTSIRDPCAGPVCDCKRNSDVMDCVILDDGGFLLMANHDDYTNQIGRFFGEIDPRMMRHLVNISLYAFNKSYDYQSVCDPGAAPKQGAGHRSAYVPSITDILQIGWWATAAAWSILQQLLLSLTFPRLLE
T1 sequence (P54290 945-1091 partner limits assumed): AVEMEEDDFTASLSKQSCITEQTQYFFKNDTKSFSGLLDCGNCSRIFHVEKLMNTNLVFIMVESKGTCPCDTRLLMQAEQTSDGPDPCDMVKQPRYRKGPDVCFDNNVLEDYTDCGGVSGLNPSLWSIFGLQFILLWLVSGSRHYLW
T1 sequence (P54287 whole entry partner): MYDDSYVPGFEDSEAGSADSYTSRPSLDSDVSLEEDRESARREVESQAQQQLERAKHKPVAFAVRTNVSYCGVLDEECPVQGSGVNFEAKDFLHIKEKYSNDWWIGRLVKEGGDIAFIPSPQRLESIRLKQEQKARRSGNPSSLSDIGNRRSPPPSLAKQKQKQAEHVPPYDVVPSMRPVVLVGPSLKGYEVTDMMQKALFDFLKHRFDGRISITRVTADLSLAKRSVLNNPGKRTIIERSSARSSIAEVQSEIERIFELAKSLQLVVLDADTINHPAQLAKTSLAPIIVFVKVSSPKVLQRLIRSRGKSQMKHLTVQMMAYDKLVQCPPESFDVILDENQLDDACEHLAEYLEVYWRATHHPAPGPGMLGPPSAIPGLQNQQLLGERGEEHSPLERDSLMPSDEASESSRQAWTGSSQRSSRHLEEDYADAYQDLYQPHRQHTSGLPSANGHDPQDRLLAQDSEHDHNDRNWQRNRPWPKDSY

One may read the IC50 as the concentration needed to halve the response being measured. For the compound `CC(C)C[C@H](N)C(=O)NCCCC(c1ccc(F)cc1)c1ccc(F)cc1` [Example 7, (S)-2-Amino-4-methyl-pentanoic acid [4,4-bis-(4-fluoro-phenyl)-butyl]-amide monohydrochloride], the IC50 in data set [1] is 280 nM.

`CC(C)C[C@H](NCC1CCCCC1)C(=O)NCCCC(c1ccc(F)cc1)c1ccc(F)cc1` [Example 8, (S)-2-(Cyclohexylmethyl-amino)-4-methyl-pentanoic acid [4,4-bis-(4-fluoro-phenyl)-butyl]-amide monohydrochloride]: in data set [1], the IC50 amounted to 450 nM. In addition, the “Number of Mice Protected from Tonic Convulsions” value in data set [2] (setting [3]) is given as 0/4; in data set [2] (10 mg/Kg iv, 45 min posttreatment), 0/5; in data set [2] (setting [4]), 4/4; in data set [2] (30 mg/Kg iv, 45 min posttreatment), 2/2. For `CC(C)=CCN[C@@H](CC(C)C)C(=O)NCCCC(c1ccc(F)cc1)c1ccc(F)cc1` [Example 9, (S)-4-Methyl-2-(3-methyl-but-2-enylamino)-pentanoic acid [4,4-bis-(4-fluoro-phenyl)-butyl]-amide monohydrochloride], the half-inhibitory concentration (IC50) in data set [1] was 390 nM. In addition, the “Number of Mice Protected from Tonic Convulsions” value in data set [2] (setting [3]) and in data set [2] (setting [4]) was 10/10 in each case. As to `CN[C@@H](CC(C)C)C(=O)NCCCC(c1ccc(F)cc1)c1ccc(F)cc1` [Example 12, (S)-4-Methyl-2-methylamino-pentanoic acid [4,4-bis-(4-fluoro-phenyl)-butyl]-amide monohydrochloride], the IC50 in data set [1] is 600 nM. By melting point is commonly meant the temperature of the solid-liquid transition. For `CC(C)C[C@@H](C(=O)NCCCC(c1ccc(F)cc1)c1ccc(F)cc1)N(C)Cc1ccc(C(C)(C)C)cc1.Cl` [Example 14, (S)-2-[(4-tert-Butyl-benzyl)-methyl-amino]-4-methyl-pentanoic acid [4,4-bis-(4-fluoro-phenyl)-butyl]-amide monohydrochloride], the melting point lay within 87 to 95 °C. In addition, the IC50 in data set [1] was over 3000 nM.

Turning to `CC(C)CCN(C)[C@@H](CC(C)C)C(=O)NCCCC(c1ccc(F)cc1)c1ccc(F)cc1` [Example 28, (S)-4-Methyl-2-[methyl-(3-methyl-butyl)-amino]-pentanoic acid [4,4-bis-(4-fluoro-phenyl)-butyl]-amide monohydrochloride], in data set [1], the IC50 stood at 290 nM. `CC(C)C[C@H](NC(=O)N1CCCCCC1)C(=O)N1CCN(C(c2ccc(F)cc2)c2ccc(F)cc2)CC1` [Example 31, (S)-Azepane-1-carboxylic acid (1-{4-[bis-(4-fluoro-phenyl)-methyl]-piperazine-1-carbonyl}-3-methyl-butyl)-amide]: the IC50 in data set [1] was determined as 1200 nM. Consider `CC(C)[C@H](NC(=O)N1CCCCCC1)C(=O)N1CCN(C(c2ccc(F)cc2)c2ccc(F)cc2)CC1` [Example 33, (S)-Azepane-1-carboxylic acid (1-{4-[bis-(4-fluoro-phenyl)-methyl]-piperazine-1-carbonyl}-2-methyl-propyl)-amide], for which the IC50 in data set [1] was found to be 360 nM. On to `CC(C)C[C@@H](CN1CCN(C(c2ccc(F)cc2)c2ccc(F)cc2)CC1)NC(=O)N1CCCCCC1` [Example 36, (S)-Azepane-1-carboxylic acid (1-{4-[bis-(4-fluoro-phenyl)-methyl]-piperazin-1-ylmethyl}-3-methyl-butyl)-amide], for which the IC50 in data set [1] is 270 nM.

Regarding `CC(C)C[C@@H](C(=O)N1CCN(C(c2ccc(F)cc2)c2ccc(F)cc2)CC1)N(C)C` [Example 39, (S)-1-{4-[Bis-(4-fluoro-phenyl)-methyl]-piperazin-1-yl}-2-dimethylamino-4-methyl-pentan-1-one dihydrochloride], the IC50 in data set [1] came to 890 nM.
